This note sets out measurements from patent US9353091B2 (priority 2009, dated 2016).

pEC50, pIC50: −log10 of the molar value. Where only a bound is given, the exact number is not on record here.

Experiment [1] has as its target T1, HCV polymerase 1A (Δ21 NS5B) (Hepatitis C virus genotype 1a, UniProt P27958).
T1 construct: 20 to 50 nM Δ21 NS5B
Kind of experiment: HCV Polymerase Inhibition Assay (1a). The experiment is classed as biochemical. Here is the method:
(§1) Reaction volume was 50 μL. The reaction was terminated by the addition of 1 volume of 4 mM spermine in 10 mM Tris-Cl pH 8.0, 1 mM EDTA. After incubation for at least 15 minutes at room temperature, the precipitated RNA was captured by filtering through a GF/B filter (Millipore) in a 96 well format. The filter plate was washed three times with 200 μL, each of 2 mM spermine, 10 mM Tris-Cl pH 8.0, 1 mM EDTA, and 2 times with ethanol. After air-drying, 30 μL, of Microscint 20 scintillation cocktail (Packard) was added to each well, and the retained cpm were determined by scintillation counting. […] Retained cpm were plotted vs. inhibitor concentration and fit to equation 1 using non-linear regression (ref. 1) to obtain the IC50 values: Retained cpm=A[sqrt{(IC50+It−Et)^2+4*IC50*Et}−(IC50+It−Et)]
(§2) Ref. Morrison, J. F. and S. R. Stone. 1985. Approaches to the study and analysis of the inhibition of enzymes by slow- and tight-binding inhibitors. Comments Mol. Cell. Biophys. 2: 347-368.
(§3) The sequence of the template RNA used was: 5′-[…] […] […] […] […] […] […] […] […] […] […] […] […] […] […] […] […]-3′ (SEQ ID NO: 1)

Experiment [2] deals with T2, HCV polymerase 1B (Δ21 NS5B) (Hepatitis C virus genotype 1b, UniProt P26663).
T2 construct: 20 to 50 nM Δ21 NS5B
T2 sequence (P26663 2420-2989, stated change not applied): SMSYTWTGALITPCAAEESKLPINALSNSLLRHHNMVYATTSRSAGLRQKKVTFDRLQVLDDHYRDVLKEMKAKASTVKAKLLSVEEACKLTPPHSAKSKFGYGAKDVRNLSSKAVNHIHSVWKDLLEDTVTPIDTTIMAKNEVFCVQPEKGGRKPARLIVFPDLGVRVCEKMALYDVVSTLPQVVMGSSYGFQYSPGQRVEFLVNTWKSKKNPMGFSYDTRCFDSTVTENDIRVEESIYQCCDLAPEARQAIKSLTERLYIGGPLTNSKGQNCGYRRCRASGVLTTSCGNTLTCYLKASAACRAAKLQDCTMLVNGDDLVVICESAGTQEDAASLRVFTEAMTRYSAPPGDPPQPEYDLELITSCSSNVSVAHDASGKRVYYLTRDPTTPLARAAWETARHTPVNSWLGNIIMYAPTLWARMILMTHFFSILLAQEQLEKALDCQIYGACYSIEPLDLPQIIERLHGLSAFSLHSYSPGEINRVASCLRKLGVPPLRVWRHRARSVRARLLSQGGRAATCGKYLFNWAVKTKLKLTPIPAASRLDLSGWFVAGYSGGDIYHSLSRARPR
In words: HCV Polymerase Inhibition Assay (1b). The experiment is classed as biochemical. Here is the method: as §1, §2, §3

The test system of experiment [3] is genotype 1a-H77 subgenomic replicon cell line. In words: HCV Polymerase Replicon Assay (genotype 1a-H77, luciferase reporter). The note with it: Hepatitis C virus, 72 h, 1a-H77 replicon, three days. The format is cell-based. For orientation: In antiviral work, replicon cells carry a viral genome segment that copies itself.
For experiment [4], the system named is genotype 1b-Con1 subgenomic replicon cell line. Kind of experiment: HCV Polymerase Replicon Assay (genotype 1b-Con1, luciferase reporter). The experiment is classed as cell-based. The note with it: Hepatitis C virus, 72 h, 1b-Con1 replicon, three days.

T1 sequence (P27958 2421-2990, stated change not applied): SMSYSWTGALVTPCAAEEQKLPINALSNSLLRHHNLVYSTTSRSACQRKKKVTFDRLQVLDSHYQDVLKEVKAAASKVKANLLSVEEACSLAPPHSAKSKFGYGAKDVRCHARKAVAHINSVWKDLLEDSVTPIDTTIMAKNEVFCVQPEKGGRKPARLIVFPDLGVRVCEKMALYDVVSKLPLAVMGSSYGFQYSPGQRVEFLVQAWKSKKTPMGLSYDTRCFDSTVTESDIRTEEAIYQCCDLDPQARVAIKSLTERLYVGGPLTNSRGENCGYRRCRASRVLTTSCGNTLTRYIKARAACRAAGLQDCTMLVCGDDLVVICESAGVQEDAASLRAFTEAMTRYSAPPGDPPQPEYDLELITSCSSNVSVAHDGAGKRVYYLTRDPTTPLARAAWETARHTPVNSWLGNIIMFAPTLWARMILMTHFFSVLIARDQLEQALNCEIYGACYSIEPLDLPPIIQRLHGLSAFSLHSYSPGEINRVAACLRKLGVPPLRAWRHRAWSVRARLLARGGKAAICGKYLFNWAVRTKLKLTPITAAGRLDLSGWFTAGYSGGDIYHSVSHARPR

As to `COc1c(-c2ccc3cc(NS(C)(=O)=O)ccc3c2)cc(-c2c[nH]c(=O)[nH]c2=O)cc1C(F)(F)F` [compound 49, N-(6-(5-(2,4-dioxo-1,2,3,4-tetrahydropyrimidin-5-yl)-2-methoxy-3-(trifluoromethyl)phenyl)naphthalen-2-yl)methanesulfonamide], the values for the negative logarithm of the IC50 (pIC50) in experiment [1] and in experiment [2] were > 8.00 and 7.00 to 8.00, respectively. For the same molecule, the values for the negative-log EC50 (pEC50) in experiment [3] and in experiment [4] were 7.00 to 8.00 and ≥ 8.00, respectively.
As to `COc1c(-c2ccoc2)cc(-c2c[nH]c(=O)[nH]c2=O)cc1-c1ccc2cc(NS(C)(=O)=O)ccc2c1` [compound 38, N-(6-(5-(2,4-dioxo-1,2,3,4-tetrahydropyrimidin-5-yl)-3-(furan-3-yl)-2-methoxyphenyl)naphthalen-2-yl)methanesulfonamide], the pIC50 in experiment [1] is > 8.00; in experiment [2] it was 7.00 to 8.00. Besides, the figures for the negative logarithm of the EC50 (pEC50) in experiment [3] and in experiment [4] were 6.00 to 7.00 and 7.00 to 8.00, respectively.
Regarding `COc1c(-c2ccc3cc(NS(C)(=O)=O)ccc3c2)cc(-c2ccc(F)cc2F)cc1C(C)(C)C` [compound 11, N-(6-(5-tert-butyl-2′,4′-difluoro-4-methoxybiphenyl-3-yl)naphthalen-2-yl)methanesulfonamide], the pIC50 in experiment [1] and in experiment [2] was < 6.00 each time. Further, the pEC50 in experiment [4] is < 6.00.
Consider `COc1c(-c2ccsc2)cc(-c2c[nH]c(=O)[nH]c2=O)cc1-c1ccc2cc(NS(C)(=O)=O)ccc2c1` [compound 43, N-(6-(5-(2,4-dioxo-1,2,3,4-tetrahydropyrimidin-5-yl)-2-methoxy-3-(thiophen-3-yl)phenyl)naphthalen-2-yl)methanesulfonamide], for which the pIC50 in experiment [1] and in experiment [2] was > 8.00 each time. Besides, the figures for the pEC50 in experiment [3] and in experiment [4] were 6.00 to 7.00 and 7.00 to 8.00, respectively.
In the case of `CCc1c(-c2ccc3cc(NS(C)(=O)=O)ccc3c2)cc(-c2c[nH]c(=O)[nH]c2=O)cc1C(C)(C)C` [compound 36, N-(6-(3-tert-butyl-5-(2,4-dioxo-1,2,3,4-tetrahydropyrimidin-5-yl)-2-ethylphenyl)naphthalen-2-yl)methanesulfonamide], the pIC50 in experiment [1] and in experiment [2] was 7.00 to 8.00 throughout. The negative logarithm of the EC50 (pEC50) in experiment [3] and in experiment [4] was 6.00 to 7.00 in each case.
Consider `COc1c(-c2ccc(/C=N/NS(C)(=O)=O)cc2)cc(N2CCCS2(=O)=O)cc1C(C)(C)C` [compound 45, (E)-N′-((3′-tert-butyl-5′-(2-(1,1-dioxidoisothiazolidin-2-yl))-2′ methoxybiphenyl-4-yl)methylene)methanesulfonylhydrazide], for which the negative-log IC50 (pIC50) in experiment [1] and in experiment [2] was 6.00 to 7.00 in each case. Also, the negative logarithm of the EC50 (pEC50) in experiment [3] is < 6.00; in experiment [4] it was 6.00 to 7.00.
`COc1c(-c2ccc3cc(NS(C)(=O)=O)ccc3c2)cc(NC(=O)CN)cc1C(C)(C)C` [compound 20, 2-amino-N-(3-tert-butyl-4-methoxy-5-(6-(methylsulfonamido)naphthalen-2-yl)phenyl)acetamide]: the negative logarithm of the IC50 (pIC50) in experiment [1] and in experiment [2] was < 6.00 throughout.
Take `COc1c(-c2ccc3cc(NS(C)(=O)=O)ccc3c2)cc(NC(N)=O)cc1C(C)(C)C` [compound 14, N-(6-(3-tert-butyl-2-methoxy-5-ureidophenyl)naphthalen-2-yl)methanesulfonamide]: the pIC50 in experiment [1] was > 8.00; in experiment [2], 7.00 to 8.00. The negative logarithm of the EC50 (pEC50) in experiment [3] is 6.00 to 7.00; in experiment [4], 7.00 to 8.00.
For the molecule `COc1c(-c2ccc3c(CNS(C)(=O)=O)csc3c2)cc(-c2c[nH]c(=O)[nH]c2=O)cc1C(F)(F)F` [compound 51, N-((6-(5-(2,4-dioxo-1,2,3,4-tetrahydropyrimidin-5-yl)-2-methoxy-3-(trifluoromethyl)phenyl)benzo[b]thiophen-3-yl)methyl)methanesulfonamide], the negative-log IC50 (pIC50) was > 8.00 in experiment [1] and 7.00 to 8.00 in experiment [2]. The negative-log EC50 (pEC50) in experiment [3] was 6.00 to 7.00; in experiment [4], 7.00 to 8.00.
As to `COc1c(-c2ccc3c(c2)CC=C3CNS(C)(=O)=O)cc(-c2cn(C)c(=O)[nH]c2=O)cc1C(C)(C)C` [compound 6, N-((6-(3-tert-butyl-2-methoxy-5-(1-methyl-2,4-dioxo-1,2,3,4-tetrahydropyrimidin-5-yl)phenyl)-1H-inden-3-yl)methyl)methanesulfonamide], the negative-log IC50 (pIC50) was > 8.00 in experiment [1] and 7.00 to 8.00 in experiment [2]. For the same molecule, the values for the pEC50 in experiment [3] and in experiment [4] were 6.00 to 7.00 and ≥ 8.00, respectively.
For `CC(C)(C)c1cc(-c2c[nH]c(=O)[nH]c2=O)cc(-c2ccc3cc(NS(C)(=O)=O)ccc3c2)c1I` [compound 34, N-(6-(3-tert-butyl-5-(2,4-dioxo-1,2,3,4-tetrahydropyrimidin-5-yl)-2-iodophenyl)naphthalen-2-yl)methanesulfonamide], in that order: > 8.00, 7.00 to 8.00, 6.00 to 7.00 and 7.00 to 8.00.
For `COc1c(-c2ccc3cc(NS(C)(=O)=O)ccc3c2)cc(N2CCCC2=O)cc1C(C)(C)C` [compound 29, N-(6-(3-tert-butyl-2-methoxy-5-(2-oxopyrrolidin-1-yl)phenyl)naphthalen-2-yl)methanesulfonamide], the negative-log IC50 (pIC50) in experiment [1] and in experiment [2] was 7.00 to 8.00 each time. The pEC50 in experiment [3] is 6.00 to 7.00; in experiment [4], 7.00 to 8.00.
Take `COc1c(-c2ccc3cc(NS(C)(=O)=O)ccc3c2)cc(-c2c[nH]c(=O)[nH]c2=O)cc1-c1cccs1` [compound 39, N-(6-(5-(2,4-dioxo-1,2,3,4-tetrahydropyrimidin-5-yl)-2-methoxy-3-(thiophen-2-yl)phenyl)naphthalen-2-yl)methanesulfonamide]: the pIC50 in experiment [1] and in experiment [2] was > 8.00 throughout. Further, the negative-log EC50 (pEC50) in experiment [3] is 7.00 to 8.00; in experiment [4] it was ≥ 8.00.
As for `CCOC(=O)CCNC(=O)Nc1cc(-c2ccc3cc(NS(C)(=O)=O)ccc3c2)c(OC)c(C(C)(C)C)c1` [compound 21, ethyl 3-(3-(3-tert-butyl-4-methoxy-5-(6-(methylsulfonamido)naphthalen-2-yl)phenyl)ureido)propanoate], the negative-log IC50 (pIC50) is 6.00 to 7.00 in experiment [1] and < 6.00 in experiment [2]. Also, the negative logarithm of the EC50 (pEC50) in experiment [3] and in experiment [4] was 6.00 to 7.00 throughout.
Regarding `COc1c(/C=C/c2ccc(NS(C)(=O)=O)cc2)cc(-c2c[nH]c(=O)[nH]c2=O)cc1C(C)(C)C` [compound 4, (E)-N-(4-(3-tert-butyl-5-(2,4-dioxo-1,2,3,4-tetrahydropyrimidin-5-yl)-2-methoxystyryl)phenyl)methanesulfonamide], the pEC50 in experiment [3] and in experiment [4] was ≥ 8.00 in each case.
For `COc1c(-c2ccc3cc(NS(C)(=O)=O)ccc3c2)cc(NC(=O)Nc2ccccc2)cc1C(C)(C)C` [compound 17, N-(6-(3-tert-butyl-2-methoxy-5-(3-phenylureido)phenyl)naphthalen-2-yl)methanesulfonamide], the pIC50 in experiment [1] and in experiment [2] was < 6.00 each time.
Take `COc1c(-c2ccc3cc(NS(C)(=O)=O)ccc3c2)cc(C(=O)c2ccccc2)cc1C(C)(C)C` [compound 31, N-(6-(5-benzoyl-3-tert-butyl-2-methoxyphenyl)naphthalen-2-yl)methanesulfonamide]: the pIC50 in experiment [1] and in experiment [2] was < 6.00 each time.
Regarding `COc1c(/C=C/c2ccc(NS(C)(=O)=O)cc2)cc(C(=O)c2ccccc2)cc1C(C)(C)C` [compound 32, (E)-N-(4-(5-benzoyl-3-tert-butyl-2-methoxystyryl)phenyl)methanesulfonamide], the pIC50 in experiment [1] and in experiment [2] was < 6.00 throughout.
`COc1c(-c2ccc3cc(NS(C)(=O)=O)ccc3c2)cc(NC(=O)NC(C)C)cc1C(C)(C)C` [compound 18, N-(6-(3-tert-butyl-5-(3-isopropylureido)-2-methoxyphenyl)naphthalen-2-yl)methanesulfonamide]: the pIC50 in experiment [1] and in experiment [2] was < 6.00 throughout.
`COc1c(-c2ccc3cc(NS(C)(=O)=O)ccc3c2)cc(NC(=O)CCN)cc1C(C)(C)C` [compound 24, 3-amino-N-(3-tert-butyl-4-methoxy-5-(6-(methylsulfonamido)naphthalen-2-yl)phenyl)propanamide]: the negative-log IC50 (pIC50) in experiment [1] and in experiment [2] was < 6.00 in each case.
`COc1c(-c2ccc3cc(NS(C)(=O)=O)ccc3c2)cc(NC(=O)CNC(=O)OC(C)(C)C)cc1C(C)(C)C` [compound 19, tert-butyl 2-(3-tert-butyl-4-methoxy-5-(6-(methylsulfonamido)naphthalen-2-yl)phenylamino)-2-oxoethylcarbamate]: the negative logarithm of the IC50 (pIC50) in experiment [1] and in experiment [2] was < 6.00 in each case.
As to `COc1c(-c2c[nH]c(=O)[nH]c2=O)cc(-c2ccc3cc(NS(C)(=O)=O)ccc3c2)cc1C(C)(C)C` [compound 1, N-(6-(3-tert-butyl-5-(2,4-dioxo-1,2,3,4-tetrahydropyrimidin-5-yl)-4-methoxyphenyl)naphthalen-2-yl)methanesulfonamide], the pIC50 in experiment [1] and in experiment [2] was 6.00 to 7.00 throughout.

One may read the pIC50 as the IC50 on a negative log10 scale, so that one unit is a factor of ten. The low end stands for a high IC50, the high end for a low IC50. By pEC50 is commonly meant −log10 of the EC50, conventionally taken in molar units.
